SMILES strings stand for the structures. pEC50: −log10 of the molar value. Where only a bound is given, the exact number is not on record here.

The target of assay [1] is T1, follicle-stimulating hormone (FSH) receptor (Rattus norvegicus, UniProt P20395).
T1 construct: endogenous in cells; host or cells: primary rat granulosa cells
T1 sequence (P20395 18-692): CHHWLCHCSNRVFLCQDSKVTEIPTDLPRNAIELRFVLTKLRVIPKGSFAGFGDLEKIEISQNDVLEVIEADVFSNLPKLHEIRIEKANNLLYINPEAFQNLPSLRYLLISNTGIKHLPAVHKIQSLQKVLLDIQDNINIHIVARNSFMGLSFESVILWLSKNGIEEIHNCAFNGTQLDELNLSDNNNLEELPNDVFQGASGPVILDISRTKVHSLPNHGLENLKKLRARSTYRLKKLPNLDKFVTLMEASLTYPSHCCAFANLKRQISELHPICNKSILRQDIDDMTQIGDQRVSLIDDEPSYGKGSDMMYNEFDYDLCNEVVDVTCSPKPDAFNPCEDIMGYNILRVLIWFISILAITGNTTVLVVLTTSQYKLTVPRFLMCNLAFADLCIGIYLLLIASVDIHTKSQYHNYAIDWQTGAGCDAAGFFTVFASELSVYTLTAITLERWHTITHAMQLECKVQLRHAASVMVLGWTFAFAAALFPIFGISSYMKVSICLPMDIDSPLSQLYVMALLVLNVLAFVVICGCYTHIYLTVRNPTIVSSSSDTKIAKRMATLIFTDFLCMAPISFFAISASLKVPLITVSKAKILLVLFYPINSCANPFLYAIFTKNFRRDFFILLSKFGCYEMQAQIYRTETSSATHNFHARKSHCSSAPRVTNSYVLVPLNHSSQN
The assay is described as follows: Rat granulosa EC50 FSH (Assay B). It is filed as cell-based. To be noted: for pEC50: rat granulosa cells, read-out: Assay B: Rat granulosa EC50 FSH. As for the experimental part: Rat Granulosa EC50 FSH (Assay B)
The assay was performed pursuant to the teaching of Yanofsky et al. (2006) Allosteric activation of the follicle-stimulating hormone (FSH) receptor by selective, nonpeptide agonists (JBC 281(19): 13226-13233, which is incorporated by reference in the disclosure of the invention).

Assay [2] deals with T2, FSHR (Homo sapiens, UniProt P23945).
T2 construct: expressed in transfected cells; host or cells: CHO (Cho-FSHR-LUC-1-1-43)
T2 sequence (P23945 18-695): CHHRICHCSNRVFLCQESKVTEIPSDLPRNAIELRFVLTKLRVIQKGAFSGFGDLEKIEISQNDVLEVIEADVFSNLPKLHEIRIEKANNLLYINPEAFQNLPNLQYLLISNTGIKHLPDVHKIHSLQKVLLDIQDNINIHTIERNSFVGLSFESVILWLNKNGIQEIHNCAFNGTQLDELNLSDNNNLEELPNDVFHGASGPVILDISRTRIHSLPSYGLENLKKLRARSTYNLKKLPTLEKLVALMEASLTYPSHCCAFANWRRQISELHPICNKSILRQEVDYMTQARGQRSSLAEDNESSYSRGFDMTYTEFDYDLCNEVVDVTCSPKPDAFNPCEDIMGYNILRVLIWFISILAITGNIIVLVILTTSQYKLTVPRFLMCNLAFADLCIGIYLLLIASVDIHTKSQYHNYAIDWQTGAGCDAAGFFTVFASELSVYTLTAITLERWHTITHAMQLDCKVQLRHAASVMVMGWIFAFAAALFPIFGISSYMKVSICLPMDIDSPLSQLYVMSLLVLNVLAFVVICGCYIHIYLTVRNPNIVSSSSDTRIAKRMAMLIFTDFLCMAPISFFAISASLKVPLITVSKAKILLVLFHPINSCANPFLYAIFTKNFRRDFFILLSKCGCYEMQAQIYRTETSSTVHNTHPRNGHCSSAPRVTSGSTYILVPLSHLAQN
The assay is described as follows: EC50 of cyclic AMP production in CHO FSHR cells + EC20 FSH (Assay A). Type of assay: cell-based. To be noted: CHO FSHR cells + EC20 FSH, cAMP HTRF; read-out: Assay A: EC50 of cyclic AMP production. The procedure, abridged:
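cAMP HTRF read-out (665 nm/620 nm ratio) after 1 h at 37° C of Cho-FSHR-LUC cells treated with serially diluted test compound plus EC20 FSH ([…]) and IBMX (final 200 μM). Responses given as percent of maximal FSH-standard effect.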

As usually defined, the pEC50 is the EC50 on a negative log10 scale, so that one unit is a factor of ten. With `COc1cc2c(cc1C(O)C(C)C)-c1c(c(C(=O)N3CCOCC3(C)C)nn1-c1ccsc1)CO2` (stereo not shown) [Compound 131, (3,3-Dimethyl-morpholin-4-yl)-[8-(1-hydroxy-2-methyl-propyl)-7-methoxy-1-thiophen-3-yl-1,4-dihydro-chromeno[4,3-c]pyrazol-3-yl]-methanone], the results for the pEC50 in assay [1] and in assay [2] were 5.30 to 6.00 and over 7.00, respectively.
`[2H]C([2H])([2H])n1cc(-c2cc3c(cc2OC)OCc2c(C(=O)N4CCOCC4(C)C)nn(-c4ccsc4)c2-3)cn1` [Compound 96]: the pEC50 in assay [1] was 6.00 to 7.00; in assay [2], over 7.00.
Consider `COC(=O)C1CCCN(C(=O)c2nn(-c3ccsc3)c3c2COc2cc(OC)c(C=C(C)C)cc2-3)CC1` (stereo not shown) [Compound 17, 1-[7-Methoxy-8-(2-methyl-propenyl)-1-thiophen-3-yl-1,4-dihydro-chromeno[4,3-c]pyrazole-3-carbonyl]-azepane-4-carboxylic acid methyl ester], for which the pEC50 is under 5.30 in assay [1] and 6.00 to 7.00 in assay [2].
`[2H]C([2H])([2H])OCC(C)(C)N(C(=O)c1nn(-c2ccsc2)c2c1COc1cc(OC)c(CC(C)C)cc1-2)C([2H])([2H])[2H]` [Compound 83]: the pEC50 in assay [1] was 6.00 to 7.00; in assay [2], over 7.00.
`[2H]C([2H])([2H])OCC1(N(C(=O)c2nn(-c3ccsc3)c3c2COc2cc(OC)c(S(=O)(=O)C(C)C)cc2-3)C([2H])([2H])[2H])COC1` [Compound 200]: the pEC50 in assay [1] is under 5.30; in assay [2] it was over 7.00.
For the compound `COc1cc2c(cc1-c1ccns1)-c1c(c(C(=O)N(C)C(C)(C)C)nn1-c1ccsc1)CO2` [Compound 105, 8-Isothiazol-5-yl-7-methoxy-1-thiophen-3-yl-1,4-dihydro-chromeno[4,3-c]pyrazole-3-carboxylic acid tert-butyl-methyl-amide], the pEC50 in assay [1] and in assay [2] was over 7.00 throughout.
For `COc1cc2c(cc1-c1cn(C)nc1C)-c1c(c(C(=O)N(C)C(C)(C)C)nn1-c1ccsc1)CO2` [Compound 150, 8-(1,3-Dimethyl-1H-pyrazol-4-yl)-7-methoxy-1-thiophen-3-yl-1,4-dihydro-chromeno[4,3-c]pyrazole-3-carboxylic acid tert-butyl-methyl-amide], the negative-log EC50 (pEC50) in assay [1] was 6.00 to 7.00; in assay [2], over 7.00.
On to `COCOCCn1cc(-c2cc3c(cc2OC)OCc2c(C(=O)N4CCOCC4(C)C)nn(-c4ccsc4)c2-3)cn1` [Compound 205, (3,3-Dimethyl-morpholin-4-yl)-{7-methoxy-8-[1-(2-methoxymethoxy-ethyl)-1H-pyrazol-4-yl]-1-thiophen-3-yl-1,4-dihydro-chromeno[4,3-c]pyrazol-3-yl}-methanone], for which the pEC50 in assay [1] and in assay [2] was over 7.00 in each case.
With `COc1cc2c(cc1-c1cn[nH]c1)-c1c(c(C(=O)N(C)C(C)(C)C)nn1-c1ccsc1)CO2` [Compound 1, 7-Methoxy-8-(1H-pyrazol-4-yl)-1-thiophen-3-yl-1,4-dihydro-chromeno[4,3-c]pyrazole-3-carboxylic Acid tert-butyl-methyl-amide], the pEC50 in assay [1] and in assay [2] was over 7.00 each time.
For `COc1cc2c(cc1SC(C)C)-c1c(c(C(=O)N(C)C(C)(C)C)nn1-c1ccsc1)CO2` [Compound 52, 8-isopropylsulfanyl-7-methoxy-1-thiophen-3-yl-1,4-dihydro-chromeno[4,3-c]pyrazole-3-carboxylic Acid tert-butyl-methyl-amide], the figures for the pEC50 in assay [1] and in assay [2] were 6.00 to 7.00 and over 7.00, respectively.
In the case of `COC(=O)C1CCCN(C(=O)c2nn(-c3ccsc3)c3c2COc2cc(OC)c(OC(C)C)cc2-3)CC1` (stereo not shown) [Compound 24, 1-(8-Isopropoxy-7-methoxy-1-thiophen-3-yl-1,4-dihydro-chromeno[4,3-c]pyrazole-3-carbonyl)-azepane-4-carboxylic acid methyl ester], the results for the negative logarithm of the EC50 (pEC50) in assay [1] and in assay [2] were 5.30 to 6.00 and over 7.00, respectively.
For `COc1cc2c(cc1C=C(C)C)-c1c(c(C(=O)NCCCN3CCOC3=O)nn1-c1ccsc1)CO2` [Compound 9, 7-Methoxy-8-(2-methyl-propenyl)-1-thiophen-3-yl-1,4-dihydro-chromeno[4,3-c]pyrazole-3-carboxylic acid [3-(2-oxo-oxazolidin-3-yl)-propyl]-amide], the Emax at 30 µM in assay [1] (@ 30 μM, read-out: Assay B: percental effect (response) relative to the maximum response of the FSH standard) worked out at 40.5%. The pEC50 in assay [2] is 5.30 to 6.00.
For the compound `COc1cc2c(cc1C(N)=O)-c1c(c(C(=O)N(C)C(C)(C)C)nn1-c1ccsc1)CO2` [Compound 50, 7-Methoxy-1-thiophen-3-yl-1,4-dihydro-chromeno[4,3-c]pyrazole-3,8-dicarboxylic Acid 8-amide 3-(tert-butyl-methyl-amide)], the pEC50 was 6.00 to 7.00 in assay [1] and over 7.00 in assay [2].
Regarding `COc1cc2c(cc1-c1ccn(C)c1)-c1c(c(C(=O)N3CCOCC3(C)C)nn1-c1ccsc1)CO2` [Compound 98, (3,3-Dimethyl-morpholin-4-yl)-[7-methoxy-8-(1-methyl-1H-pyrrol-3-yl)-1-thiophen-3-yl-1,4-dihydro-chromeno[4,3-c]pyrazol-3-yl]-methanone], the negative logarithm of the EC50 (pEC50) was 5.30 to 6.00 in assay [1] and over 7.00 in assay [2].
For `[2H]C([2H])([2H])OCCC1(N(C(=O)c2nn(-c3ccsc3)c3c2COc2cc(OC)c(-c4ccn(C)c4)cc2-3)C([2H])([2H])[2H])COC1` [Compound 198], in that order: over 7.00 and over 7.00.
`[2H]C([2H])([2H])N(CCN(C(=O)c1nn(-c2ccsc2)c2c1COc1cc(OC)c(CC(C)C)cc1-2)C([2H])([2H])[2H])C(C)=O` [Compound 82]: the values for the pEC50 in assay [1] and in assay [2] were 5.30 to 6.00 and over 7.00, respectively.
As for `COc1cc2c(cc1-c1cc(C)nn1C)-c1c(c(C(=O)N3CCOCC3(C)C)nn1-c1ccsc1)CO2` [Compound 122, (3,3-Dimethyl-morpholin-4-yl)-[8-(2,5-dimethyl-2H-pyrazol-3-yl)-7-methoxy-1-thiophen-3-yl-1,4-dihydro-chromeno[4,3-c]pyrazol-3-yl]-methanone], the values for the pEC50 in assay [1] and in assay [2] were under 5.30 and over 7.00, respectively.
As to `COc1cc2c(cc1C=C(C)C)-c1c(c(C(=O)NCCN3CCOC3=O)nn1-c1ccsc1)CO2` [Compound 13, 7-Methoxy-8-(2-methyl-propenyl)-1-thiophen-3-yl-1,4-dihydro-chromeno[4,3-c]pyrazole-3-carboxylic acid [2-(2-oxo-oxazolidin-3-yl)-ethyl]-amide], the pEC50 in assay [1] is 5.30 to 6.00; in assay [2], 6.00 to 7.00.
For `COc1cc2c(cc1-c1c(C)n[nH]c1C)-c1c(c(C(=O)N3CCOCC3(C)C)nn1-c1ccsc1)CO2` [Compound 126, (3,3-Dimethyl-morpholin-4-yl)-[8-(3,5-dimethyl-1H-pyrazol-4-yl)-7-methoxy-1-thiophen-3-yl-1,4-dihydro-chromeno[4,3-c]pyrazol-3-yl]-methanone], the negative-log EC50 (pEC50) in assay [1] was 6.00 to 7.00; in assay [2], over 7.00.
`CCn1cc(-c2cc3c(cc2OC)OCc2c(C(=O)N4CCOCC4(C)C)nn(-c4ccsc4)c2-3)cn1` [Compound 210, (3,3-Dimethyl-morpholin-4-yl)-[8-(1-ethyl-1H-pyrazol-4-yl)-7-methoxy-1-thiophen-3-yl-1,4-dihydro-chromeno[4,3-c]pyrazol-3-yl]-methanone]: the pEC50 in assay [1] was under 5.30; in assay [2] it was over 7.00.

The values above are taken from patent US11365199B2, “Pyrazole compounds as modulators of FSHR and uses thereof” (Merck Patent GmbH, priority 2013, dated 2022).
